# From patent publication US20260176393A1, “PRESERVATIVE COMPOSITION FOR BIOLOGICAL SAMPLES” (KANAZAWA UNIVERSITY, priority 2022, published 2026)
# Columns and labels:
# [1] = system: Human kidney cells (BOSC); test: Cryopreservation test, survival rate of BOSC cells; format: cell-based; conditions: 10 wt % in Water; after cryopreservation
# Description: In the case of adherent cells, the cells to be frozen were treated with trypsin and recovered by centrifugation. In the case of floating cells, the cells to be frozen were recovered by centrifugation. The cells of each type were diluted with Dulbecco's modified Eagle medium (DMEM), and the cell concentration was measured. In the present specification, the DMEM solution is also simply referred to as a medium.
# Subsequently, each dilution was dispensed at 1 mL/tube to 1.5 mL tubes, and the cells were suspended in a cryopreservative solution containing 100 μL of a zwitterion polymer solution and frozen at a cooling temperature of −85° C. and a cooling rate of −1° C./min by a cell freezing container Mr. Frosty®. In the present Examples, the commercially available cryopreservative solution used was CultureSure® (manufactured by FUJIFILM Wako Pure Chemical Corp.) unless otherwise specified. The cryopreservation time was set to 48 hours. Then, the cells were thawed at a tube temperature of 37° C. and used in live cell counting.
# The cells were thawed by the addition of 1 mL of a medium to the cryopreservation vial at 37° C. and centrifuged to remove a supernatant. The cells thus obtained by centrifugation were resuspended in a medium, followed by live cell counting.
# [2] = system: mouse fibroblasts (mNF); test: Cryopreservation test, survival rate of mNF cells; format: cell-based; conditions: 10 wt % in Water; after cryopreservation
# Description: In the case of adherent cells, the cells to be frozen were treated with trypsin and recovered by centrifugation. In the case of floating cells, the cells to be frozen were recovered by centrifugation. The cells of each type were diluted with Dulbecco's modified Eagle medium (DMEM), and the cell concentration was measured. In the present specification, the DMEM solution is also simply referred to as a medium. […] Frosty®. In the present Examples, the commercially available cryopreservative solution used was CultureSure® (manufactured by FUJIFILM Wako Pure Chemical Corp.) unless otherwise specified. The cryopreservation time was set to 48 hours. Then, the cells were thawed at a tube temperature of 37° C. and used in live cell counting. The cells were thawed by the addition of 1 mL of a medium to the cryopreservation vial at 37° C. and centrifuged to remove a supernatant. The cells thus obtained by centrifugation were resuspended in a medium, followed by live cell counting.
# [3] = Osmotic pressure, vapor pressure-type osmometer; format: physicochemical; conditions: 10 wt % in Water
# Description: A vapor pressure-type osmometer (VAPRO 5600; Wescor, Inc., Logan, UT, USA) was used, and an osmotic pressure was measured in a 10 mL standard chamber (room temperature: 25° C., apparatus sensor temperature: 33° C., sample volume: 10 μL).
smiles,measurement,setting,value
C=Cn1cc[n+](CCCC(=O)[O-])c1 [VimC3C],Survival rate (BOSC),[1],0.15
same,Survival rate (mNF),[2],0.42
same,Osmotic pressure,[3],860 mOsm/kg
